# Test results reported in US12624066B2, “Inhibitors of coronavirus protease” (SUNSHINE BIOPHARMA INC., priority 2020, dated 2026).
# Square brackets hold non-standard residues; d marks the D form. Peptide text beside a SMILES is read from it.
# Target: SARS-CoV-2-PLpro enzyme (Severe acute respiratory syndrome coronavirus 2, UniProt P0DTD1)
# Test: SARS-CoV-2-PLpro enzyme inhibition assay
# Assay type: biochemical
# Details: read-out: Percent inhibition
# Protocol: The inhibition assay was carried out as follows. 1 μM SARS-CoV-2-PLpro enzyme was incubated with 25 μM Arg-Leu-Arg-Gly-Gly-AMC substrate and 100 μM of the inhibitor peptide tested, in reaction buffer (100 mM NaCl, 50 mM HEPES [pH=7.5], 0.01 mg/mL bovine serum albumin, and 5 mM DTT) to a final volume of 50 μL. A control reaction with no inhibitory peptide was included and serves as the basis for “no inhibition”. Each reaction was carried in triplicate. The percentage inhibition was calculated by […].
row,Compound,inhibition at 100 µM [%]
1,CC(C)C[C@@H](NC(=O)[C@@H](N)CCCNC(=N)N)C(=O)N[C@@H](CCCNC(=N)N)C(=O)NCC(=O)NCC(=O)O [Arg - Leu - Arg - Gly - Gly],10 to 15
2,CC(C)C[C@@H](NC(=O)[C@@H](N)CCCNC(=N)N)C(=O)N[C@@H](CCCCN)C(=O)NCC(=O)NCC(=O)O [Arg - Leu - Lys - Gly - Gly] (H-R[dL]KGG-OH),5 to 10
3,CC(C)C[C@@H](NC(=O)[C@@H](N)CCC(=O)O)C(=O)N[C@@H](CC(N)=O)C(=O)NCC(=O)NCC(=O)O [Glu - Leu - Asn - Gly - Gly] (H-E[dL]NGG-OH),0
4,CC(C)C[C@@H](NC(=O)[C@@H](N)CO)C(=O)N[C@@H](CCCCN)C(=O)NCC(=O)NCC(=O)O [Ser - Leu - Lys - Gly - Gly] (H-S[dL]KGG-OH),0
